Legend:
Experiment in all cases: radiometric filter-binding kinase assay
[1] = test system: AKT1 (human), P31749 [S473D]
AURKA (human) = AURKA (human) (UniProt O14965)
BRSK1 (human) = BRSK1 (human) (UniProt Q8TDC3)
DYRK2 (human) = DYRK2 (human) (UniProt Q92630)
EEF2K (human) = EEF2K (human) (UniProt O00418)
EPHA2 (human) = EPHA2 (human) (UniProt P29317)
EPHB3 (human) = EPHB3 (human) (UniProt P54753)
ERBB4 (human) = ERBB4 (human) (UniProt Q15303)
GSK3B (human) = GSK3B (human) (UniProt P49841)
HIPK3 (human) = HIPK3 (human) (UniProt Q9H422)
INSR (human) = INSR (human) (UniProt P06213)
IRAK4 (human) = IRAK4 (human) (UniProt Q9NWZ3)
MAP2K2 (human) = MAP2K2 (human) (UniProt P36507)
MAP2K6 (human) = MAP2K6 (human) (UniProt P52564)
MAP3K1 (human) = MAP3K1 (human) (UniProt Q13233)
MAP3K11 (human) = MAP3K11 (human) (UniProt Q16584)
MAP3K5 (human) = MAP3K5 (human) (UniProt Q99683)
MAP3K7 TAB1 (human) = MAP3K7 TAB1 (human) (UniProt Q15750+O43318)
MAP3K9 (human) = MAP3K9 (human) (UniProt P80192)
MAPK12 (human) = MAPK12 (human) (UniProt P53778)
MAPK9 (human) = MAPK9 (human) (UniProt P45984)
MAPKAPK2 (human) = MAPKAPK2 (human) (UniProt P49137)
MARK1 (human) = MARK1 (human) (UniProt Q9P0L2)
MARK2 (human) = MARK2 (human) (UniProt Q7KZI7)
MARK4 (human) = MARK4 (human) (UniProt Q96L34)
MELK (human) = MELK (human) (UniProt Q14680)
MST4 (human) = MST4 (human) (UniProt Q9P289)
NTRK1 (human) = NTRK1 (human) (UniProt P04629)
NUAK1 (human) = NUAK1 (human) (UniProt O60285)
PAK4 (human) = PAK4 (human) (UniProt O96013)
PAK6 (human) = PAK6 (human) (UniProt Q9NQU5)
PIM1 (human) = PIM1 (human) (UniProt P11309)
PKN2 (human) = PKN2 (human) (UniProt Q16513)
PRKCA (human) = PRKCA (human) (UniProt P17252)
PRKCZ (human) = PRKCZ (human) (UniProt Q05513)
[2] = molecular target: STK11 CAB39 STRADA (human) (UniProt Q9Y376+Q7RTN6+Q15831)

PRKCZ (human), sequence (Q05513 whole entry, looked up): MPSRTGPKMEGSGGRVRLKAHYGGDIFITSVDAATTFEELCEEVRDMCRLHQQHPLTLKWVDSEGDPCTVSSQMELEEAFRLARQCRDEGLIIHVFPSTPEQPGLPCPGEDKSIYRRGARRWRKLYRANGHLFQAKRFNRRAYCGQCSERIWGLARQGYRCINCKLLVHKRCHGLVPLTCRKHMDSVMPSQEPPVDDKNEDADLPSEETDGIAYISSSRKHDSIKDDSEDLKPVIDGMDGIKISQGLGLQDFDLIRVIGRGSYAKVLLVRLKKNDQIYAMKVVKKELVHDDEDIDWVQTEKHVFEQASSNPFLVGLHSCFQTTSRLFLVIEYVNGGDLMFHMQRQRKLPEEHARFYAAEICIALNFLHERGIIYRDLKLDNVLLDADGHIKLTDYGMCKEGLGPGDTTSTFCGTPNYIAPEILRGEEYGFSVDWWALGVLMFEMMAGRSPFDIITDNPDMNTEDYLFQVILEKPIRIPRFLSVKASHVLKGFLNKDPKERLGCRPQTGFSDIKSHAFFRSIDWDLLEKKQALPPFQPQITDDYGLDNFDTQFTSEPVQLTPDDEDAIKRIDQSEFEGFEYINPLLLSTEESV
MAP2K6 (human), sequence (P52564 whole entry, looked up): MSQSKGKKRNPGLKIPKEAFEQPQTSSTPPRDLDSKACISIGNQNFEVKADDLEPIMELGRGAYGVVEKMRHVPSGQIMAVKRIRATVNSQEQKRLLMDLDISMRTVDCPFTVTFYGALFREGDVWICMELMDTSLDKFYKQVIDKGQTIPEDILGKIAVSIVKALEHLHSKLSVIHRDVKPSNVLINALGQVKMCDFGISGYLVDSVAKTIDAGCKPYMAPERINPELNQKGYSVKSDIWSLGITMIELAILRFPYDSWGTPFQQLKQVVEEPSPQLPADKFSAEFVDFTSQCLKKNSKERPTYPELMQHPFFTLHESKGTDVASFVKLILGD
DYRK2 (human), sequence (Q92630 whole entry, looked up): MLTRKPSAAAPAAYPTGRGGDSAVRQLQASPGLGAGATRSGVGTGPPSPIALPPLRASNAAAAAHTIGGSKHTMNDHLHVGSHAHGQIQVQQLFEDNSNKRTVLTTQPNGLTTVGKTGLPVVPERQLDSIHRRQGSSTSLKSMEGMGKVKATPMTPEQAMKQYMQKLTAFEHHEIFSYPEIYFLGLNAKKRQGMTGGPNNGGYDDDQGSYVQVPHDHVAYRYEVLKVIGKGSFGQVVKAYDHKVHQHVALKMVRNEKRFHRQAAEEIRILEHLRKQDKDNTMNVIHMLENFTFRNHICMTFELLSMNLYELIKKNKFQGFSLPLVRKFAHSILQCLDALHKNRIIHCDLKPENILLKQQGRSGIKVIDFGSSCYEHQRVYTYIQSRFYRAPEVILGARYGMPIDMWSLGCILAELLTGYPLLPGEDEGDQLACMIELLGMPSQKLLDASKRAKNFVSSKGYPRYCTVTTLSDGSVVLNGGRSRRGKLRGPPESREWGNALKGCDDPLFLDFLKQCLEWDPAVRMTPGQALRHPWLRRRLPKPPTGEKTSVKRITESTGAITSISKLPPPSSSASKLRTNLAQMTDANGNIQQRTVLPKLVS
EEF2K (human), sequence (O00418 whole entry, looked up): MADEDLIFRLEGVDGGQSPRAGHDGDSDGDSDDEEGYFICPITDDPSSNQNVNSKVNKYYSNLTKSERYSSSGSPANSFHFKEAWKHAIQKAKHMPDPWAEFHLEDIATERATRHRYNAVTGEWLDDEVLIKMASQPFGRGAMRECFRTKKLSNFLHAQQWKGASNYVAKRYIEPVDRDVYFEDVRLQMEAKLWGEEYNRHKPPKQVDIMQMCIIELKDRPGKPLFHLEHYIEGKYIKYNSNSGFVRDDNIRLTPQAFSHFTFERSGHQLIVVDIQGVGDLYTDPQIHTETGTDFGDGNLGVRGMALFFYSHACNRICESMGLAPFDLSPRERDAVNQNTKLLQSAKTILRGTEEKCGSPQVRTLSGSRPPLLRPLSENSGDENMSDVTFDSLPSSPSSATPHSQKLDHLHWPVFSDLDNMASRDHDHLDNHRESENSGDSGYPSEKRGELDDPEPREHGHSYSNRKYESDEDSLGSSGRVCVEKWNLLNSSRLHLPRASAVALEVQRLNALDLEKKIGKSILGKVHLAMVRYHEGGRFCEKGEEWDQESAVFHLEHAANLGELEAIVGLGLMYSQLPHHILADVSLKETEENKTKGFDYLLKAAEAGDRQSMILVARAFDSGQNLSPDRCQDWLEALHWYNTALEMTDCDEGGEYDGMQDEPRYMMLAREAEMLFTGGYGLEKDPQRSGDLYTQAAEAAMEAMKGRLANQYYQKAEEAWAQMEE
NTRK1 (human), sequence (P04629 whole entry, looked up): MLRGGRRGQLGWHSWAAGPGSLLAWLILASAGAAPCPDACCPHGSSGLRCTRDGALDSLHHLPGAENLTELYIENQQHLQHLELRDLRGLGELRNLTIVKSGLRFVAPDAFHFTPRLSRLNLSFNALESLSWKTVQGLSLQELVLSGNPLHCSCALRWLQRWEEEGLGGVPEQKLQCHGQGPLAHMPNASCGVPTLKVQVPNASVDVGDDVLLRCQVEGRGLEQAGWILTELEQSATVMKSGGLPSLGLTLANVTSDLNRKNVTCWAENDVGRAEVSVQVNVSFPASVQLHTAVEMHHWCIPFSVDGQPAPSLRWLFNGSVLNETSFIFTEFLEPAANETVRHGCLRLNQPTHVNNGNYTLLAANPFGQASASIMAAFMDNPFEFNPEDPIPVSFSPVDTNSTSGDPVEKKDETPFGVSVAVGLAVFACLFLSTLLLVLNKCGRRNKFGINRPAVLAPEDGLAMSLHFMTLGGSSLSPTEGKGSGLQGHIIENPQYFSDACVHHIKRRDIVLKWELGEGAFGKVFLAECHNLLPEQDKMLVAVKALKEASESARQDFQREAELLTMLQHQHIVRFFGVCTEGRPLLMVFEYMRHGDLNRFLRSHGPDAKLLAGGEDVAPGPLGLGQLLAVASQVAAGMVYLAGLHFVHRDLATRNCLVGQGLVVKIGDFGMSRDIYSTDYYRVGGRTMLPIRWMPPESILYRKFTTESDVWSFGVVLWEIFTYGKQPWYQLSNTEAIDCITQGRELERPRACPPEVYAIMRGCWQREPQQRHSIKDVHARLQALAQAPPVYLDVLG
MARK1 (human), sequence (Q9P0L2 whole entry, looked up): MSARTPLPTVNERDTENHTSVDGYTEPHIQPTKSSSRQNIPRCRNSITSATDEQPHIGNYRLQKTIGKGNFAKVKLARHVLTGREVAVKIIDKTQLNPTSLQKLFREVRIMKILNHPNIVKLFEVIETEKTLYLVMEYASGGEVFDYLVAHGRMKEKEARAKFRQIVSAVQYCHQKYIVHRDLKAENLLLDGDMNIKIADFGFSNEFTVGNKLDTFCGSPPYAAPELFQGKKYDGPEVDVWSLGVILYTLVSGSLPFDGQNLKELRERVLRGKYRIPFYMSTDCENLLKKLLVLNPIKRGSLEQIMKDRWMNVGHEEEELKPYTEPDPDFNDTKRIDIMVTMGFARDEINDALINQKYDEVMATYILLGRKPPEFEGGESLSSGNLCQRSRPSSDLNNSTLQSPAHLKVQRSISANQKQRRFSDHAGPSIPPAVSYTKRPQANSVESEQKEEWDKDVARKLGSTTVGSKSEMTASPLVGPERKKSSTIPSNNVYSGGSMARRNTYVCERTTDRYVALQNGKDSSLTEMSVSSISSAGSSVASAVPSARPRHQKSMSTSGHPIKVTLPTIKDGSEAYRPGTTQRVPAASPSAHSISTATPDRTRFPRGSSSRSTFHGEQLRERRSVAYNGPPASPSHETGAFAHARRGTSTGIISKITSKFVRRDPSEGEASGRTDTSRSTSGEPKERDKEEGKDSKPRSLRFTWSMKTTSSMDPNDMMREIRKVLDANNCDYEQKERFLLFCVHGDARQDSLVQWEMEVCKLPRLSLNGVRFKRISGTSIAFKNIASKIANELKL
IRAK4 (human), sequence (Q9NWZ3 whole entry, looked up): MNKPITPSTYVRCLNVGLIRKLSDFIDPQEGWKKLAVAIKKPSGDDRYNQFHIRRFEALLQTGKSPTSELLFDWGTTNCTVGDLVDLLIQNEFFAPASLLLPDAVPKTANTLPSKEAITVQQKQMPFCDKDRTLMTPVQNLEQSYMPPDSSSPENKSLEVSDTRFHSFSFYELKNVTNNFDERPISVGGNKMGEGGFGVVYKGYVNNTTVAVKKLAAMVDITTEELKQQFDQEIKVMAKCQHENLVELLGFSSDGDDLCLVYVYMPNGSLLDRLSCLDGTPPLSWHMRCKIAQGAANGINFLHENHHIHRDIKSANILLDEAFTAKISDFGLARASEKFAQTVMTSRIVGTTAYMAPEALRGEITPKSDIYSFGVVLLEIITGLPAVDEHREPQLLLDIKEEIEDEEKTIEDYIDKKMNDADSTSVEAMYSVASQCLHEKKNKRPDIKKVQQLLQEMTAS

## FC(F)(F)c1ccc(-c2ccc(Oc3cncc4sc(-c5nn[nH]n5)cc34)cc2)cc1
[1]; compound 1.0 µM
  residual activity: 99%
[1]; compound 10.0 µM
  residual activity: 73%
AURKA (human); compound 1.0 µM
  residual activity: 108%
AURKA (human); compound 10.0 µM
  residual activity: 63%
BRSK1 (human); compound 1.0 µM
  residual activity: 138%
BRSK1 (human); compound 10.0 µM
  residual activity: 104%
DYRK2 (human); compound 1.0 µM
  residual activity: 16%
DYRK2 (human); compound 10.0 µM
  residual activity: 3%
EEF2K (human); compound 1.0 µM
  residual activity: 106%
EEF2K (human); compound 10.0 µM
  residual activity: 80%
EPHA2 (human); compound 1.0 µM
  residual activity: 126%
EPHA2 (human); compound 10.0 µM
  residual activity: 94%
EPHB3 (human); compound 1.0 µM
  residual activity: 122%
EPHB3 (human); compound 10.0 µM
  residual activity: 104%
ERBB4 (human); compound 1.0 µM
  residual activity: 94%
ERBB4 (human); compound 10.0 µM
  residual activity: 89%
GSK3B (human); compound 1.0 µM
  residual activity: 63%
GSK3B (human); compound 10.0 µM
  residual activity: 14%
HIPK3 (human); compound 1.0 µM
  residual activity: 63%
HIPK3 (human); compound 10.0 µM
  residual activity: 10%
INSR (human); compound 1.0 µM
  residual activity: 100%
INSR (human); compound 10.0 µM
  residual activity: 91%
IRAK4 (human); compound 1.0 µM
  residual activity: 90%
IRAK4 (human); compound 10.0 µM
  residual activity: 88%
MAP2K2 (human); compound 1.0 µM
  residual activity: 87%
MAP2K2 (human); compound 10.0 µM
  residual activity: 70%
MAP2K6 (human); compound 1.0 µM
  residual activity: 94%
MAP2K6 (human); compound 10.0 µM
  residual activity: 100%
MAP3K1 (human); compound 1.0 µM
  residual activity: 109%
MAP3K1 (human); compound 10.0 µM
  residual activity: 93%
MAP3K11 (human); compound 1.0 µM
  residual activity: 91%
MAP3K11 (human); compound 10.0 µM
  residual activity: 61%
MAP3K5 (human); compound 1.0 µM
  residual activity: 95%
MAP3K5 (human); compound 10.0 µM
  residual activity: 72%
MAP3K7 TAB1 (human); compound 1.0 µM
  residual activity: 104%
MAP3K7 TAB1 (human); compound 10.0 µM
  residual activity: 67%
MAP3K9 (human); compound 1.0 µM
  residual activity: 126%
MAP3K9 (human); compound 10.0 µM
  residual activity: 91%
MAPK12 (human); compound 1.0 µM
  residual activity: 91%
MAPK12 (human); compound 10.0 µM
  residual activity: 73%
MAPK9 (human); compound 1.0 µM
  residual activity: 113%
MAPK9 (human); compound 10.0 µM
  residual activity: 100%
MAPKAPK2 (human); compound 1.0 µM
  residual activity: 97%
MAPKAPK2 (human); compound 10.0 µM
  residual activity: 94%
MARK1 (human); compound 1.0 µM
  residual activity: 99%
MARK1 (human); compound 10.0 µM
  residual activity: 72%
MARK2 (human); compound 1.0 µM
  residual activity: 83%
MARK2 (human); compound 10.0 µM
  residual activity: 84%
MARK4 (human); compound 1.0 µM
  residual activity: 106%
MARK4 (human); compound 10.0 µM
  residual activity: 97%
MELK (human); compound 1.0 µM
  residual activity: 81%
MELK (human); compound 10.0 µM
  residual activity: 19%
MST4 (human); compound 1.0 µM
  residual activity: 118%
MST4 (human); compound 10.0 µM
  residual activity: 71%
NTRK1 (human); compound 1.0 µM
  residual activity: 104%
NTRK1 (human); compound 10.0 µM
  residual activity: 71%
NUAK1 (human); compound 1.0 µM
  residual activity: 128%
NUAK1 (human); compound 10.0 µM
  residual activity: 88%
PAK4 (human); compound 1.0 µM
  residual activity: 121%
PAK4 (human); compound 10.0 µM
  residual activity: 97%
PAK6 (human); compound 1.0 µM
  residual activity: 121%
PAK6 (human); compound 10.0 µM
  residual activity: 110%
PIM1 (human); compound 1.0 µM
  residual activity: 70%
PIM1 (human); compound 10.0 µM
  residual activity: 17%
PKN2 (human); compound 1.0 µM
  residual activity: 98%
PKN2 (human); compound 10.0 µM
  residual activity: 54%
PRKCA (human); compound 1.0 µM
  residual activity: 107%
PRKCA (human); compound 10.0 µM
  residual activity: 59%
PRKCZ (human); compound 1.0 µM
  residual activity: 126%
PRKCZ (human); compound 10.0 µM
  residual activity: 60%
[2]; compound 1.0 µM
  residual activity: 85%
[2]; compound 10.0 µM
  residual activity: 64%

## Oc1ccc2ccccc2c1SSc1c(O)ccc2ccccc12
[1]; compound 1.0 µM
  residual activity: 87%
[1]; compound 5.0 µM
  residual activity: 62%
[1]; compound 10.0 µM
  residual activity: 85%
AURKA (human); compound 1.0 µM
  residual activity: 2%
AURKA (human); compound 5.0 µM
  residual activity: 2%
BRSK1 (human); compound 1.0 µM
  residual activity: 29%
BRSK1 (human); compound 5.0 µM
  residual activity: 24%
DYRK2 (human); compound 1.0 µM
  residual activity: 68%
DYRK2 (human); compound 5.0 µM
  residual activity: 45%
DYRK2 (human); compound 10.0 µM
  residual activity: 64%
EEF2K (human); compound 1.0 µM
  residual activity: 83%
EEF2K (human); compound 5.0 µM
  residual activity: 60%
EEF2K (human); compound 10.0 µM
  residual activity: 89%
EPHA2 (human); compound 1.0 µM
  residual activity: 91%
EPHA2 (human); compound 5.0 µM
  residual activity: 75%
EPHA2 (human); compound 10.0 µM
  residual activity: 97%
EPHB3 (human); compound 1.0 µM
  residual activity: 86%
EPHB3 (human); compound 5.0 µM
  residual activity: 69%
EPHB3 (human); compound 10.0 µM
  residual activity: 26%
ERBB4 (human); compound 1.0 µM
  residual activity: 62%
ERBB4 (human); compound 5.0 µM
  residual activity: 49%
GSK3B (human); compound 1.0 µM
  residual activity: 68%
GSK3B (human); compound 5.0 µM
  residual activity: 30%
GSK3B (human); compound 10.0 µM
  residual activity: 106%
HIPK3 (human); compound 1.0 µM
  residual activity: 37%
HIPK3 (human); compound 5.0 µM
  residual activity: 33%
INSR (human); compound 1.0 µM
  residual activity: 110%
INSR (human); compound 5.0 µM
  residual activity: 93%
INSR (human); compound 10.0 µM
  residual activity: 113%
IRAK4 (human); compound 1.0 µM
  residual activity: 47%
IRAK4 (human); compound 5.0 µM
  residual activity: 9%
MAP2K2 (human); compound 1.0 µM
  residual activity: 90%
MAP2K2 (human); compound 5.0 µM
  residual activity: 48%
MAP2K6 (human); compound 1.0 µM
  residual activity: 93%
MAP2K6 (human); compound 5.0 µM
  residual activity: 70%
MAP3K1 (human); compound 1.0 µM
  residual activity: 64%
MAP3K1 (human); compound 5.0 µM
  residual activity: 38%
MAP3K11 (human); compound 1.0 µM
  residual activity: 9%
MAP3K11 (human); compound 5.0 µM
  residual activity: 2%
MAP3K5 (human); compound 1.0 µM
  residual activity: 129%
MAP3K5 (human); compound 5.0 µM
  residual activity: 154%
MAP3K7 TAB1 (human); compound 1.0 µM
  residual activity: 47%
MAP3K7 TAB1 (human); compound 5.0 µM
  residual activity: 15%
MAP3K9 (human); compound 1.0 µM
  residual activity: 16%
MAP3K9 (human); compound 5.0 µM
  residual activity: 4%
MAPK12 (human); compound 1.0 µM
  residual activity: 97%
MAPK12 (human); compound 5.0 µM
  residual activity: 99%
MAPK12 (human); compound 10.0 µM
  residual activity: 103%
MAPK9 (human); compound 1.0 µM
  residual activity: 94%
MAPK9 (human); compound 5.0 µM
  residual activity: 80%
MAPK9 (human); compound 10.0 µM
  residual activity: 94%
MAPKAPK2 (human); compound 1.0 µM
  residual activity: 90%
MAPKAPK2 (human); compound 5.0 µM
  residual activity: 69%
MAPKAPK2 (human); compound 10.0 µM
  residual activity: 76%
MARK1 (human); compound 1.0 µM
  residual activity: 65%
MARK1 (human); compound 5.0 µM
  residual activity: 38%
MARK2 (human); compound 1.0 µM
  residual activity: 85%
MARK2 (human); compound 5.0 µM
  residual activity: 66%
MARK4 (human); compound 1.0 µM
  residual activity: 47%
MARK4 (human); compound 5.0 µM
  residual activity: 41%
MELK (human); compound 1.0 µM
  residual activity: 13%
MELK (human); compound 5.0 µM
  residual activity: 14%
MELK (human); compound 10.0 µM
  residual activity: 97%
MST4 (human); compound 1.0 µM
  residual activity: 6%
MST4 (human); compound 5.0 µM
  residual activity: 8%
MST4 (human); compound 10.0 µM
  residual activity: 53%
NTRK1 (human); compound 1.0 µM
  residual activity: 63%
NTRK1 (human); compound 5.0 µM
  residual activity: 19%
NUAK1 (human); compound 1.0 µM
  residual activity: 11%
NUAK1 (human); compound 5.0 µM
  residual activity: 6%
PAK4 (human); compound 1.0 µM
  residual activity: 119%
PAK4 (human); compound 5.0 µM
  residual activity: 45%
PAK4 (human); compound 10.0 µM
  residual activity: 98%
PAK6 (human); compound 1.0 µM
  residual activity: 86%
PAK6 (human); compound 5.0 µM
  residual activity: 45%
PAK6 (human); compound 10.0 µM
  residual activity: 101%
PIM1 (human); compound 1.0 µM
  residual activity: 37%
PIM1 (human); compound 5.0 µM
  residual activity: 15%
PIM1 (human); compound 10.0 µM
  residual activity: 46%
PKN2 (human); compound 1.0 µM
  residual activity: 72%
PKN2 (human); compound 5.0 µM
  residual activity: 30%
PKN2 (human); compound 10.0 µM
  residual activity: 87%
PRKCA (human); compound 1.0 µM
  residual activity: 91%
PRKCA (human); compound 5.0 µM
  residual activity: 48%
PRKCA (human); compound 10.0 µM
  residual activity: 65%
PRKCZ (human); compound 1.0 µM
  residual activity: 44%
PRKCZ (human); compound 5.0 µM
  residual activity: 11%
PRKCZ (human); compound 10.0 µM
  residual activity: 39%
[2]; compound 1.0 µM
  residual activity: 60%
[2]; compound 5.0 µM
  residual activity: 17%
